Series [1] can be described thus: Distribution coefficient (Log D) value at pH 6.5. Type of series: physicochemical. The settings on record: octanol/water, read-out: LogD6.5.
Series [2] in a line: Distribution coefficent (Log D) value at pH 7.4. Format: physicochemical. To be noted: read-out: LogD7.4.
Series [3] in a line: Solubility at pH 6.5. Format: physicochemical. To be noted: buffer.
The nature of series [4]: Solubility at pH 7.4. Type of series: physicochemical. To be noted: buffer.
Series [5] is filed under the species Homo sapiens. Put plainly: Compound was tested in vitro for inhibition of human mixed lymphocyte proliferation (HuMLR). Format: functional.
For series [6], the system named is Rattus norvegicus. Nature of the series: Compound was tested in vivo for immunosuppressive activity using rat popliteal lymph node (rPLN) hyperplasia assay. Format: functional.
The species entered for series [7] is Homo sapiens. Nature of the series: Compound was tested in vitro for inhibitory activity against human FKBP. Type of series: functional.
Series [8] concerns Rattus norvegicus. Nature of the series: Compound was tested in vivo for immunosuppressive activity using rat popliteal lymph node (rPLN) hyperplasia assay at 3 mg/kg. Type of series: functional.
Series [9] is described as follows: Compound was tested in vitro for inhibitory activity against human FK506 binding protein.

Molecules are shown by their SMILES. pIC50: −log10 of the molar value. ≈ marks a conversion by molar mass, not a printed value.

A word on the solubility: it is the dissolved amount per volume that the medium holds. As a reminder, the pIC50 is the IC50 on a negative log10 scale, so that one unit is a factor of ten. Read a low pIC50 as a high IC50. The term ED50 denotes the dose that gives a 50% effect, or the effect in half of the subjects. The low end stands for an effect at a small dose, the high end for a need for a large dose. Regarding `CC[C@@H]1/C=C(\C)C[C@H](C)C[C@H](OC)[C@H]2O[C@@](O)(C(=O)C(=O)N3CCCC[C@H]3C(=O)O[C@H](/C(C)=C/[C@@H]3C[C@@H](O)[C@@H](O)[C@H](OC)C3)[C@H](C)[C@@H](O)CC1=O)[C@H](C)C[C@@H]2OC`, the logD was found to be 3.6 in series [1] and 3.4 in series [2]. The figures for the solubility in series [3] (read-out: Solubility) and in [4] were 464 µg/mL (≈ 574 µM) and 455 µg/mL (≈ 563 µM), respectively. Further, the pIC50 in the series listed under Homo sapiens [5] was 9.77; in the series listed under Homo sapiens [7] it was 8.92. Moreover, the ED50 with Rattus norvegicus [6] came to 0.72 mg/kg.
The term inhibition in vivo denotes the drop in the measured response relative to a control, in per cent. A lower inhibition in vivo goes with a weak effect. Turning to `CC[C@@H]1/C=C(\C)C[C@H](C)C[C@H](OC)[C@H]2O[C@@](O)(C(=O)C(=O)N3CCCC[C@H]3C(=O)O[C@H](/C(C)=C/[C@@H]3CC[C@@H](OC)[C@H](O)C3O)[C@H](C)[C@@H](O)CC1=O)[C@H](C)C[C@@H]2OC` (stereo partly drawn), the logD in series [1] and in series [2] was 3.9 throughout. Besides, the solubility in series [3] (read-out: Solubility) was determined as 294 µg/mL (≈ 364 µM); in series [4], 245 µg/mL (≈ 303 µM). In addition, the pIC50 was 9.14 in the series filed under Homo sapiens [5] and 7.41 in the series filed under Homo sapiens [7]. In the series on Rattus norvegicus [8], this compound registered an inhibition in vivo at 3 mg/kg of 36%.
`CC[C@@H]1/C=C(\C)C[C@H](C)C[C@H](OC)[C@H]2O[C@@](O)(C(=O)C(=O)N3CCCC[C@H]3C(=O)O[C@H](/C(C)=C/[C@@H]3CC[C@@H](O)[C@H](OC)C3)[C@H](C)[C@@H](O)CC1=O)[C@H](C)C[C@@H]2OC` [ASCOMYCIN]: the figures for the logD in series [1] and in series [2] were 3.98 and 4.22, respectively. Further, the solubility was determined as 1.6 µg/mL (≈ 2.02 µM) in series [3] and 4.2 µg/mL (≈ 5.3 µM) in series [4]. The pIC50 was 9.60 in the series listed under Homo sapiens [5] and 8.69 in the series listed under Homo sapiens [7]. In the series on Rattus norvegicus [6], this compound showed a median effective dose (ED50) of 0.31 mg/kg.
Turning to `C=CC[C@@H]1/C=C(\C)C[C@H](C)C[C@H](OC)[C@H]2O[C@@](O)(C(=O)C(=O)N3CCCC[C@H]3C(=O)O[C@H](/C(C)=C/[C@@H]3CC[C@@H](O)[C@H](OC)C3)[C@H](C)[C@@H](O)CC1=O)[C@H](C)C[C@@H]2OC` [TACROLIMUS ANHYDROUS], the logD was determined as 4.36 in series [1] and 4.38 in series [2]. Also, the solubility in series [3] (read-out: Solubility) was 1 µg/mL (≈ 1.24 µM); in series [4] it was 5.2 µg/mL (≈ 6.47 µM). The pIC50 in series [9] was 8.60; in the series listed under Homo sapiens [5], 9.43. In the series with Rattus norvegicus [6], this compound yielded an ED50 of 0.15 mg/kg.

The values above are taken from ChEMBL document CHEMBL1130792, “Studies on an immunosuppressive macrolactam, ascomycin: synthesis of a C-33 hydroxyl derivative” (Bioorg Med Chem Lett, 1998).
